The data set in a line: solubility in water and in organic solvents. It is filed as physicochemical.

With `CNC(=O)c1cc(Oc2ccc(NC(=O)Nc3ccc(Cl)c(C(F)(F)F)c3)c(F)c2)ccn1` [polymorph III, 4-[4-({[4-chloro-3-(trifluoromethyl)phenyl]carbamoyl}amino)-3-fluorophenoxy]-N-methylpyridine-2-carboxamide in the polymorph III], the “solubility in organic solvents” value (organic solvents) is “high”. For the same molecule, the solubility in water entry (water) is listed as “high”.

Source of the values: US20100063112A1, “POLYMORPH III OF 4-[4-(AMINO)-3-FLUOROPHENOXY]-N-METHYLPYRIDINE-2-CARBOXAMIDE” (BAYER SCHERING PHARMA AKTIENGESELLSCHAFT, priority 2006, published 2010).
